From the supplement of paper PMC10307832

What was measured:
Experiment in all cases: relative viability (nuclei count vs DMSO), 5 days (fraction); higher = more cells survive
[1] = system: 201T
Method in brief: (§1)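 Lung cancer cell lines in 1536-well plates were dosed by pin tool the day after seeding, either with one drug alone or with a fixed anchor-drug dose plus five library-drug doses (not always all listed) in √10 steps. After 5 days, cells were fixed and their nuclei stained in one step (final 0.05% Triton X-100, 1% formaldehyde, 1 ug/ml Hoechst), then counted on 4× images. Relative viability is the nuclei count in treated wells divided by that in vehicle wells. Values are medians of duplicate plates.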

[2] = system: NCI-H1792
Method in brief: as §1

[3] = system: NCI-H1915
Method in brief: as §1

[4] = system: NCI-H1650
Method in brief: as §1

[5] = system: NCI-H441
Method in brief: as §1

[6] = system: LC-2-ad
Method in brief: as §1

[7] = system: PC-3 [JPC-3]
Method in brief: as §1

[8] = system: NCI-H460
Method in brief: as §1

[9] = system: H3255
Method in brief: as §1

[10] = system: BEN
Method in brief: as §1

[11] = system: HCC-15
Method in brief: as §1

[12] = system: NCI-H727
Method in brief: as §1

[13] = system: NCI-H2023
Method in brief: as §1

[14] = system: ABC-1
Method in brief: as §1

[15] = system: NCI-H596
Method in brief: as §1

[16] = system: NCI-H650
Method in brief: as §1

[17] = system: NCI-H1944
Method in brief: as §1

[18] = system: NCI-H661
Method in brief: as §1

[19] = system: CAL-12T
Method in brief: as §1

[20] = system: NCI-H2087
Method in brief: as §1

[21] = system: NCI-H520
Method in brief: as §1

[22] = system: NCI-H1651
Method in brief: as §1

[23] = system: A-427
Method in brief: as §1

[24] = system: LCLC-97TM1
Method in brief: as §1

For COc1cc(N2CCC(C(N)=O)CC2)ccc1Nc1nc(N)c(Cl)c(Nc2ccccc2S(=O)(=O)C(C)C)n1 [HG-5-88-01] + Cc1nc(Nc2ncc(C(=O)Nc3c(C)cccc3Cl)s2)cc(N2CCN(CCO)CC2)n1 [Dasatinib] (partner 0.075 µM), the relative viability ([1]; first compound 0.04 µM) was 0.616, the relative viability ([1]; first compound 0.1265 µM) was 0.56 and the relative viability ([1]; first compound 0.4 µM) was 0.545. It also gave a relative viability ([1]; first compound 1.265 µM) of 0.512, a relative viability ([1]; first compound 4 µM) of 0.267 and a relative viability ([2]; first compound 0.04 µM) of 0.959. For the same compound, the relative viability ([2]; first compound 0.1265 µM) was 0.693, the relative viability ([2]; first compound 0.4 µM) was 0.78 and the relative viability ([2]; first compound 4 µM) was 0.525. For the same compound, the relative viability ([3]; first compound 0.04 µM) was 0.347, the relative viability ([3]; first compound 0.1265 µM) was 0.316 and the relative viability ([3]; first compound 0.4 µM) was 0.295. The relative viability ([3]; first compound 1.265 µM) was 0.314, the relative viability ([3]; first compound 4 µM) was 0.239 and the relative viability ([4]; first compound 0.04 µM) was 0.324. For the same compound, the relative viability ([4]; first compound 0.1265 µM) was 0.327, the relative viability ([4]; first compound 0.4 µM) was 0.278 and the relative viability ([4]; first compound 1.265 µM) was 0.232. For the same compound, the relative viability ([4]; first compound 4 µM) was 0.221, the relative viability ([5]; first compound 0.04 µM) was 0.601 and the relative viability ([5]; first compound 0.1265 µM) was 0.625. For the same compound, the relative viability ([5]; first compound 0.4 µM) was 0.31, the relative viability ([5]; first compound 1.265 µM) was 0.314 and the relative viability ([5]; first compound 4 µM) was 0.231. It also gave a relative viability ([6]; first compound 0.04 µM) of 0.633, a relative viability ([6]; first compound 0.1265 µM) of 0.469 and a relative viability ([6]; first compound 0.4 µM) of 0.261. It also gave a relative viability ([6]; first compound 1.265 µM) of 0.287, a relative viability ([6]; first compound 4 µM) of 0.205 and a relative viability ([7]; first compound 0.04 µM) of 1.03. It also gave a relative viability ([7]; first compound 0.1265 µM) of 0.982, a relative viability ([7]; first compound 0.4 µM) of 0.902 and a relative viability ([7]; first compound 1.265 µM) of 0.936. The relative viability ([7]; first compound 4 µM) was 0.814, the relative viability ([8]; first compound 0.04 µM) was 0.481 and the relative viability ([8]; first compound 0.1265 µM) was 0.56. It also gave a relative viability ([8]; first compound 0.4 µM) of 0.316, a relative viability ([8]; first compound 1.265 µM) of 0.255 and a relative viability ([8]; first compound 4 µM) of 0.0831. It also gave a relative viability ([9]; first compound 0.04 µM) of 0.338, a relative viability ([9]; first compound 0.1265 µM) of 0.411 and a relative viability ([9]; first compound 0.4 µM) of 0.355. The relative viability ([9]; first compound 4 µM) was 0.2, the relative viability ([10]; first compound 0.04 µM) was 0.227 and the relative viability ([10]; first compound 0.1265 µM) was 0.337. The relative viability ([10]; first compound 0.4 µM) was 0.291, the relative viability ([10]; first compound 1.265 µM) was 0.319 and the relative viability ([10]; first compound 4 µM) was 0.26. It also gave a relative viability ([11]; first compound 0.04 µM) of 0.669, a relative viability ([11]; first compound 0.1265 µM) of 0.59 and a relative viability ([11]; first compound 0.4 µM) of 0.416. It also gave a relative viability ([11]; first compound 1.265 µM) of 0.397, a relative viability ([11]; first compound 4 µM) of 0.347 and a relative viability ([12]; first compound 0.04 µM) of 0.335. The relative viability ([12]; first compound 0.1265 µM) was 0.334, the relative viability ([12]; first compound 0.4 µM) was 0.282 and the relative viability ([12]; first compound 1.265 µM) was 0.173. For the same compound, the relative viability ([12]; first compound 4 µM) was 0.217, the relative viability ([13]; first compound 0.04 µM) was 0.646 and the relative viability ([13]; first compound 0.1265 µM) was 0.515. The relative viability ([13]; first compound 0.4 µM) was 0.318, the relative viability ([13]; first compound 1.265 µM) was 0.196 and the relative viability ([13]; first compound 4 µM) was 0.207. For the same compound, the relative viability ([14]; first compound 0.04 µM) was 0.5, the relative viability ([14]; first compound 0.1265 µM) was 0.583 and the relative viability ([14]; first compound 0.4 µM) was 0.389. The relative viability ([14]; first compound 1.265 µM) was 0.457, the relative viability ([14]; first compound 4 µM) was 0.304 and the relative viability ([15]; first compound 0.04 µM) was 0.6. It also gave a relative viability ([15]; first compound 0.1265 µM) of 0.494, a relative viability ([15]; first compound 0.4 µM) of 0.544 and a relative viability ([15]; first compound 1.265 µM) of 0.416. For the same compound, the relative viability ([15]; first compound 4 µM) was 0.288, the relative viability ([16]; first compound 0.04 µM) was 0.441 and the relative viability ([16]; first compound 0.1265 µM) was 0.46. It also gave a relative viability ([16]; first compound 0.4 µM) of 0.378, a relative viability ([16]; first compound 1.265 µM) of 0.391 and a relative viability ([16]; first compound 4 µM) of 0.304. The relative viability ([17]; first compound 0.04 µM) was 0.205, the relative viability ([17]; first compound 0.1265 µM) was 0.201 and the relative viability ([17]; first compound 0.4 µM) was 0.233. The relative viability ([17]; first compound 1.265 µM) was 0.191, the relative viability ([17]; first compound 4 µM) was 0.188 and the relative viability ([18]; first compound 0.04 µM) was 0.939. It also gave a relative viability ([18]; first compound 0.1265 µM) of 0.941, a relative viability ([18]; first compound 0.4 µM) of 0.791 and a relative viability ([18]; first compound 1.265 µM) of 0.514. It also gave a relative viability ([18]; first compound 4 µM) of 0.664, a relative viability ([19]; first compound 0.04 µM) of 0.382 and a relative viability ([19]; first compound 0.1265 µM) of 0.36. The relative viability ([19]; first compound 0.4 µM) was 0.154, the relative viability ([19]; first compound 1.265 µM) was 0.0794 and the relative viability ([19]; first compound 4 µM) was 0.0951. The relative viability ([20]; first compound 0.04 µM) was 0.826, the relative viability ([20]; first compound 0.1265 µM) was 0.787 and the relative viability ([20]; first compound 0.4 µM) was 0.601. The relative viability ([20]; first compound 1.265 µM) was 0.389, the relative viability ([20]; first compound 4 µM) was 0.167 and the relative viability ([21]; first compound 0.04 µM) was 0.201. The relative viability ([21]; first compound 0.1265 µM) was 0.176, the relative viability ([21]; first compound 0.4 µM) was 0.184 and the relative viability ([21]; first compound 1.265 µM) was 0.162. For the same compound, the relative viability ([21]; first compound 4 µM) was 0.2, the relative viability ([22]; first compound 0.04 µM) was 0.368 and the relative viability ([22]; first compound 0.1265 µM) was 0.619. For the same compound, the relative viability ([22]; first compound 0.4 µM) was 0.375, the relative viability ([22]; first compound 1.265 µM) was 0.249 and the relative viability ([22]; first compound 4 µM) was 0.246. It also gave a relative viability ([23]; first compound 0.04 µM) of 0.77, a relative viability ([23]; first compound 0.1265 µM) of 0.686 and a relative viability ([23]; first compound 0.4 µM) of 0.676. It also gave a relative viability ([23]; first compound 1.265 µM) of 0.746, a relative viability ([23]; first compound 4 µM) of 0.431 and a relative viability ([24]; first compound 0.04 µM) of 0.753. It also gave a relative viability ([24]; first compound 0.1265 µM) of 0.956, a relative viability ([24]; first compound 0.4 µM) of 0.481 and a relative viability ([24]; first compound 1.265 µM) of 0.714. It also gave a relative viability ([24]; first compound 4 µM) of 0.477.
